Consider one molecule from patent US20100137449A1, “SUBSTITUTED 1,3-CYCLOPENTADIONE MULTI-TARGET PROTEIN KINASE MODULATORS OF CANCER, ANGIOGENESIS AND THE INFLAMMATORY PATHWAYS ASSOCIATED THEREWITH” (METAPROTEOMICS, LLC, priority 2007, published 2010).

Common to all, as to experiment: KinaseProfiler Assay
Assay [1] has as its target T1, DCAMKL2(h) (Homo sapiens, UniProt Q8N568).
T1 sequence (Q8N568 1-766): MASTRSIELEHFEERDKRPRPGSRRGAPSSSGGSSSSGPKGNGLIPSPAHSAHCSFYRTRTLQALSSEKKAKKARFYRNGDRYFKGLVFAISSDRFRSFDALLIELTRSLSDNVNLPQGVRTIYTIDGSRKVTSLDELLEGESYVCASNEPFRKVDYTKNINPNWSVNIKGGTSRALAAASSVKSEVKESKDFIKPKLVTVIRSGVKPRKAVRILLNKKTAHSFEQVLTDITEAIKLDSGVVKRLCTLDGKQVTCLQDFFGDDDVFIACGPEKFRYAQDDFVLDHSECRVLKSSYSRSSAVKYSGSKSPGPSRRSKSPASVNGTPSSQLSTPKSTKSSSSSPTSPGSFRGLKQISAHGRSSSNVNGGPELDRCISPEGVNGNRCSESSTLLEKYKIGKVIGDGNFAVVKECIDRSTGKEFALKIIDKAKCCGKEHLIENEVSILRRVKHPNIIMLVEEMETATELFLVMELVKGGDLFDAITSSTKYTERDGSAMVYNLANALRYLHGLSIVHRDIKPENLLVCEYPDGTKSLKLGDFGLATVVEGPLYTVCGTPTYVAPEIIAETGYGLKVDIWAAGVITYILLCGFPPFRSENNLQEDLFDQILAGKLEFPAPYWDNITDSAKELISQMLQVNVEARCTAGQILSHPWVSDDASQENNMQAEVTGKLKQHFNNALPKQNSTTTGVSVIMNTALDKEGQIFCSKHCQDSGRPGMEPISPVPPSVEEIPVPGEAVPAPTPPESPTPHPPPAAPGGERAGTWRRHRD

Assay [2] addresses T2, PDK1(h) (Homo sapiens, UniProt O15530).
T2 sequence (O15530 1-556): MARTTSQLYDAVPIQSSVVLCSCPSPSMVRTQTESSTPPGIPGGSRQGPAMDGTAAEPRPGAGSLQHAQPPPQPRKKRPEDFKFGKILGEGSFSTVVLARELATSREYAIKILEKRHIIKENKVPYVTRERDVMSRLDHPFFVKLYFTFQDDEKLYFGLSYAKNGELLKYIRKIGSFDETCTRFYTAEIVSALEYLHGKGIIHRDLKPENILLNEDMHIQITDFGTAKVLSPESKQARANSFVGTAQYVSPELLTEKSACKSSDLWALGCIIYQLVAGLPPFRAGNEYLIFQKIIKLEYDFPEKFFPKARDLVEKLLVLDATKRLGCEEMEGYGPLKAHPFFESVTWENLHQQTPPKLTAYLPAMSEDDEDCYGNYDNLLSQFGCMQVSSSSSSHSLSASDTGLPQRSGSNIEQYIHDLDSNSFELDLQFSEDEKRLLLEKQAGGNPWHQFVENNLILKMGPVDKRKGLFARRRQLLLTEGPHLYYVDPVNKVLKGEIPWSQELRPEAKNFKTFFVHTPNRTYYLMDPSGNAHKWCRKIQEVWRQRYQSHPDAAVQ

Assay [3] has as its target T3, PKG1α(h) (Homo sapiens, UniProt Q13976).
T3 sequence (Q13976 1-671): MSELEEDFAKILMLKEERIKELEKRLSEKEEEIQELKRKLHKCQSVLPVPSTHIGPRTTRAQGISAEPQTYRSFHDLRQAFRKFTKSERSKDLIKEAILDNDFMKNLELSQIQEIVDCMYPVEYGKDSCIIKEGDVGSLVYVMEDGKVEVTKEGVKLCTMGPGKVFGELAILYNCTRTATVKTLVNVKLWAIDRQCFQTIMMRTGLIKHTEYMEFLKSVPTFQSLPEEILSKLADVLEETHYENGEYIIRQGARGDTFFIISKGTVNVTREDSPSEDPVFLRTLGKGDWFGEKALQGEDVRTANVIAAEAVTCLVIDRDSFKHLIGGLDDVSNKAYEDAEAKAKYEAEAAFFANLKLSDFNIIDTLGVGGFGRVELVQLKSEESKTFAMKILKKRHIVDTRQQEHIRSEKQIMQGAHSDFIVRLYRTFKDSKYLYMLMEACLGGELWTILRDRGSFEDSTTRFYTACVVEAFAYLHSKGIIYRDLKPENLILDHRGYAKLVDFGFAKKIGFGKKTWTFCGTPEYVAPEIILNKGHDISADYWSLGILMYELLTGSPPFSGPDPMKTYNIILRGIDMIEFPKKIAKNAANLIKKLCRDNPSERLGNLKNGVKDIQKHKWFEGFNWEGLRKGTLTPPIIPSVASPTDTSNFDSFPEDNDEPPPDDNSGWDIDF

`CC(C)CCC(=O)[C@]1(O)C(O)=C(C(=O)C(C)C)C(=O)[C@H]1CCC(C)C` [TH2, tetrahydroiso-cohumulone]: the kinase inhibition in assay [1] (1 μg/ml) is 96% of control; in assay [1] (5 μg/ml), 100% of control; in assay [1] (25 μg/ml), 110% of control; in assay [1] (50 μg/ml), 96% of control; in assay [1] (100 μg/ml) it was 86% of control; in assay [2] (1 μg/ml), 122% of control. Moreover, the kinase inhibition in assay [2] (5 μg/ml) is 123% of control; in assay [2] (25 μg/ml) it was 102% of control; in assay [2] (50 μg/ml), 87% of control; in assay [2] (100 μg/ml), 69% of control; in assay [3] (1 μg/ml), 103% of control; in assay [3] (5 μg/ml), 112% of control. For the same molecule, the results for the kinase inhibition in assay [3] (25 μg/ml), in assay [3] (50 μg/ml) and in assay [3] (100 μg/ml) were 97% of control, 92% of control and 73% of control, respectively.
